In patent publication US20150005237A1, “PEPTIDIC INHIBITOR OF SIGNAL TRANSMISSION FROM G-ALPHA-S TO G-ALPHA-I-COUPLED RECEPTOR CASCADES” (UNIVERSITÄT INNSBRUCK, priority 2011, published 2015):
Where no end group is shown, it is not given here.

Experiments:
Type in all cases: cell-based
[1] = test system: Erk1/2 phosphorylation in δOR-HEK293 cells; assay: MAPK-phosphorylation assay (Erk1/2) in δOR-HEK293 cells; settings: for SNC80-induced Erk1/2 phosphorylation (amplitude and duration): pre-treatment before SNC80
Experimental: δOR-HEK293 cells were grown in 12 or 24 well plate formats (DMEM supplemented with 10% FBS). Either 24 or 48 hours after splitting or co-transfection in overexpression studies [transfected with constructs encoding the regulatory (RIIβ) or catalytic subunits (PKAc) of PKA] confluent cells were treated with inhibitors (KT5720 for 60 minutes, pertussis toxin for 16 hours), chemical modulators (forskolin, 6-MBC-cAMP, Sp-5,6-DCI-cBIMPS, Sp-8-PIP-cAMPs, 2-Cl-8-MA-cAMP [all for 15 minutes] or Rp-cAMP for 60 minutes) and/or the δOR ligand SNC80 (for either 3, 6, 10 or 15 minutes). cAMP analogs purchased from Biolog (6-MBC-cAMP, #M012; Sp-5,6-DCI-cBIMPS, #D014; Sp-8-PIP-cAMPs, #P005, 2-Cl-8-MA-cAMP, #C080; Rp-cAMP, #A002S) (see Bobrovskaya et al., Cell. Signal. 19, 1141-1149 (2007); Nguyen et al., Cell. Signal. 16, 1141-1151 (2004); Maronde et al., J. Pineal Res. 27, 170-182 (1999); Ogreid et al., Eur. J. Biochem. 181, 19-31 (1989); Poppe et al., Nat. Methods 5, 277-278 (2008)).
Following treatments at 37° C. for 3, 6, 10 or 15 minutes the reactions were stopped by direct addition of Laemmli sample buffer. Equal amounts of protein (lysates normalized to loading control proteins) were subjected to polyacrylamide gel electrophoresis followed by immunoblotting (IB). To analyze the phosphorylation of Erk1/2 we applied the Phospho-p44/42 MAP Kinase antibody (Cell Signaling Technology, #9101). Quantitative densitometry of immuno blot bands was performed using the program ImageQuant 5.2 (Molecular Dynamics).

[2] = target: T1, RIIβ-RlucF[1]:PKAc-RlucF[2] complex (Rattus norvegicus, UniProt P12369); assay: Renilla luciferase PCA of PKA holoenzyme dissociation in HEK293T cells; settings: HEK293T cells stably expressing the PKA reporter
T1 construct: Renilla luciferase PCA fragment F[1]; expressed in transfected cells
Experimental: We have generated a stable HEK293T cell line coexpressing the PCA fusion proteins RIIβ-Rluc-F[1] and PKAc-RlucF[2], as previously described. All cells were grown in DMEM supplemented with 10% FBS. We treated confluent HEK293T cells (stably expressing the PKA reporter) grown in 24 well plate format with varying concentrations and combinations of cAMP analogs 6-MBC-cAMP and Sp-5,6-DCI-cBIMPS (15 min; Biolog, Germany). We pretreated confluent HEK293T cells (stably expressing the PKA reporter) grown in 24 well plate format with 250 μM of Rp-cAMP (60 minutes) or with 6-MBC-cAMP and Sp-5,6-DCI-cBIMPS (=RII selective, each 50 μM; 15 min). We pretreated confluent HEK293T cells (stably expressing the PKA reporter) grown in 24 well plate format for 30 minutes with TAT or Reggai fusion peptides (˜3 μM) followed by exposure to forskolin (100 μM; 15 min). Following treatment, growth medium was exchanged and cells were resuspended in 350 μl of PBS. 100 μl of cell suspensions were transferred to 96-well plates and subjected to bioluminescence analysis using the LMaxTMII384 luminometer (Molecular Devices). Rluc bioluminescence signals were integrated for 10 seconds following addition of the Rluc substrate benzyl-coelenterazine (5 μM; Nanolight). […]

PKA kinase activity = assay: CREB phosphorylation monitoring of PKA kinase activity; settings: conditions used for the Erk1/2 experiments
Experimental: We also tested the impact of R:Gαi complex formation on the evolutionary conserved route of signal transmission from Gαi to MAPK9. […] Pre-treatment with forskolin potentiated the SNC80-induced Erk1/2 phosphorylation (FIG. 2c). […] To exclude the possibility that PKA kinase activity could account for this potentiation, we pre-treated cells with the PKA inhibitor KT5720 (unless noted otherwise, all subsequent experiments were carried out in the presence of this kinase activity inhibitor). We confirmed that KT5720 inhibits PKA kinase activity under the conditions used by monitoring CREB phosphorylation (activated independently of Gαi signalling).

trimeric Gαi:βγ complex = assay: BRET assay of Gαi1:Gγ2 conformational rearrangement in δOR-HEK293 cells
Excerpt: δOR-HEK293 cells grown in DMEM supplemented with 10% FBS were transiently transfected with the following constructs: For measurements of the interactions of G protein subunits among each other and with the receptor we transfected Gαi1 with the Renilla luciferase (Rluc) inserted at amino acid position 91 and the UV-shifted GFP variant GFP10 (substitutions: P64L, S147P, and S202P) fused to the C-terminus of […] or the UV-shifted variant GFP2 (substitution: F64L) fused to the C-terminus of the δOR. In overexpression studies, we coexpressed regulatory (RIIβ) or catalytic subunits (PKAc) of PKA. […] Total fluorescence and bioluminescence were evaluated for each well using a FlexStation2 (Molecular Devices) and Mithras LB 940 (Berthold Technologies), respectively. uvGFP fluorescence was excited at 400 nm and read at 515 nm. Fluorescence values were corrected by subtracting the auto-fluorescence of cells not expressing uvGFP. BRET between Rluc and GFP2 or GFP10 was measured after the addition of 5 μM Rluc substrate DeepBlueC (bisdeoxy-coelenterazine, PerkinElmer, Lifescience). BRET signals were derived from the emission detected with the energy acceptor filter (515±15 nm; GFP2/10) divided by the emission detected with the energy donor filter (410±40 nm; Rluc/Rluc3). […]

Gαs- to Gαi-cascades = assay: Reggai peptide applied in living HEK293 cells: signal transmission from Gαs- to Gαi-cascades; settings: HEK293 cell line
Excerpt: The present inventors identified and successfully applied the Reggai peptide directly in the living cells, in particular cell culture, HEK293 cell line, and changed the original and conserved Reggai sequence in a model organism (budding yeast) to prevent signal transmission from Gαs- to Gαi-cascades. The Reggai peptide had no effect on sole activation of either cascade, just in the case of simultaneous activation of both types of receptors the Gαs triggered and PKA-mediated elevation of Gαi activities was abolished. In the mammalian system the present inventors used biochemical tools to measure changes of cAMP levels, G protein activities and MAPK activation downstream of Gαi-coupled receptors upon formation of the dynamic interaction between PKA and Gαi.

R:Gαi3 complexes = assay: cAMP agarose precipitation of R:Gαi3 complexes from COS7 cells; settings: forskolin pre-treatment 15 minutes, 2AHA-cAMP-coupled agarose beads
Experimental: HEK293, U2OS cells and total brains of mice were homogenized using a Potter S (B. Braun Biotech International) with 15 strikes (lysis buffer: 10 mM sodium phosphate pH 7.2, 150 mM NaCl, 0.05% Triton X100 supplemented with standard protease inhibitors). We clarified the lysate (13000 rpm, 15 min) and precipitated PKA regulatory subunit associated protein complexes with PKA selective 8-AHA-cAMP agarose and Rp-8-AHA-cAMP agarose resin (Biolog, […]) for two hours at 4° C. As negative control experiment we added excess of cAMP (5 mM) to the brain lysates to mask the cAMP binding sites in the R subunits for precipitation. Resin associated proteins were washed four times with lysis buffer and eluted with Laemmli sample buffer. Equal amounts of protein (lysates normalized to loading control proteins) were subjected to polyacrylamide gel electrophoresis followed by immunoblotting with indicated antibodies. We performed densitometric quantification of RIIβ, PKAc and Gαi3 (in each case normalized on the most abundant precipitated protein from the same immunoblot (n=3) to compare complex formation and fold enrichment between holoenzyme (precipitated with Rp-8-AHA-cAMP) and activated R complexes (precipitated with 8-AHA-cAMP).
We then tested whether pre-dissociating endogenous R/Reg and PKAc/Cat subunits would change the stoichiometry of R:Gαi3 or R:PDK1 complexes. […]

T1 sequence (P12369 whole entry, the tested form may be a part, one chain of several): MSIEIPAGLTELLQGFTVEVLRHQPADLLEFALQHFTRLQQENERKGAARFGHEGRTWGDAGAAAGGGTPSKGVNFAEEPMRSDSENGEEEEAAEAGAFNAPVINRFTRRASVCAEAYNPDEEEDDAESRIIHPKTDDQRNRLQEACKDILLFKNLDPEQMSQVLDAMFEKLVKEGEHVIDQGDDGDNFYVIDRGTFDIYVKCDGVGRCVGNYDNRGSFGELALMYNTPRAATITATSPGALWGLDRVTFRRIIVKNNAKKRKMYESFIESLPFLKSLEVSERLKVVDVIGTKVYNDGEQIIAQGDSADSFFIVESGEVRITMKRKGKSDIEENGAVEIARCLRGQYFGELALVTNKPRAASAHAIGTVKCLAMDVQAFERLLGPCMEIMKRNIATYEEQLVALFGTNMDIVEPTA

With `Nc1ncnc2c1nc(N1CCCCC1)n2[C@@H]1O[C@@H]2COP(=O)(O)O[C@H]2[C@H]1O` [8-PIP-cAMP] as the molecule, how does the “SNC80-induced Erk1/2 phosphorylation (amplitude and duration)” value (“SNC80-induced Erk1/2 phosphorylation” for short) [1] read?
Its value is “no effect”.

For `Nc1ncnc2c1ncn2[C@@H]1O[C@@H]2COP(O)(=S)O[C@H]2[C@H]1O` (stereo partly drawn) [Rp-cAMP], which “SNC80+RegII subunit activator and SNC80+forskolin mediated Erk1/2 phosphorylation” value ([1]; pre-treatment 250 μM, 60 minutes) is on record?
Its value is “decreased”.

What about the PKA holoenzyme dissociation [2] of the same molecule?
The PKA holoenzyme dissociation was “prevented”.

`OC1C2OP(O)(=S)OCC2OC1n1cnc2cc(Cl)c(Cl)cc21` (stereo not drawn) [Sp-5,6-DCI-cBIMPS] was tested. Which “SNC80-induced Erk1/2 phosphorylation” value [1] did it give?
Its value is “potentiated”.

How did the “PKA kinase activity (CREB phosphorylation)” value (PKA kinase activity) turn out when `CCCCCCOC(=O)[C@]1(O)C[C@@H]2O[C@@]1(C)n1c3ccccc3c3c4c(c5c6ccccc6n2c5c31)C(=O)NC4` [KT5720] was run?
The value was “inhibits”.

`C=CCN1C[C@H](C)N([C@H](c2ccc(C(=O)N(CC)CC)cc2)c2cccc(OC)c2)C[C@H]1C` [SNC80] was tested. Which “BRET between Gαi1 and Gγ2” value (trimeric Gαi:βγ complex; agonist alone) did it give?
Its value is “decrease”.

And the Erk1/2 phosphorylation ([1]; agonist alone)?
Its Erk1/2 phosphorylation is “large but transient increase”.

For 6-MBC-cAMP, which “SNC80-induced Erk1/2 phosphorylation” value [1] is on record?
Its value is “potentiated”.

Which “SNC80-induced Erk1/2 phosphorylation” value [1] does the source give for `CNc1nc2c(N)nc(Cl)nc2n1C1O[C@@H]2COP(=O)([O-])O[C@H]2[C@H]1O.[Na+]` (stereo partly drawn) [2-Cl-8-MA-cAMP] here?
The value was “no effect”.

Which results are given for “QGDSADSFFIVESGE (not fully specified; listed as Homo sapiens) [Reggai peptide, PKA RIIβ-derived 15 amino acid peptide; applied to cells as fusion with GST, TAT and Flag]”?
potentiation of SNC80-mediated Erk1/2 phosphorylation using RII/RegII subunit activators ([1]; fusion peptides ~3 μM, 30 minutes): prevented; PKA holoenzyme dissociation [2]: Neither Reggai nor TAT control peptide pre-treatment of HEK293T cells had any effect; sole activation of either cascade (Gαs or Gαi) (Gαs- to Gαi-cascades; only one cascade activated): no effect; Gαs triggered and PKA-mediated elevation of Gαi activities (Gαs- to Gαi-cascades; simultaneous activation of both types of receptors): abolished

With `C=C[C@@]1(C)CC(=O)[C@]2(O)[C@@]3(C)[C@@H](O)CCC(C)(C)[C@@H]3[C@H](O)[C@H](OC(C)=O)[C@@]2(C)O1` [forskolin] as the molecule, how does the “fold enrichment of R:Gαi3 complexes” value (R:Gαi3 complexes) read?
The value was 3.8 (SD±0.99) fold.

What about the “conformation of the trimeric G-protein complex” value (trimeric Gαi:βγ complex; treatment alone, without SNC80) of the same molecule?
The value was “no effect”.
